{
  "source": "patent US11214803B2",
  "about": "“Modulators of YAP1 expression” (Ionis Pharmaceuticals, Inc., priority 2019, dated 2022)",
  "assay_type_in_all_cases": "cell-based, human",
  "key": {"Yap1 mRNA [1]": {"tested_on": "Yap1 mRNA", "assay": "Yap1 mRNA in NCI H292 cells, RNA analysis (Example 32)", "details": "free uptake, approximately 48 hours", "method": "Modified oligonucleotides described in the studies above were tested at various doses in mucoepidermoid pulmonary carcinoma cell line […]. A control oligonucleotide 792169 was also tested.\n(§1) Cultured NCI H292 cells at a density of 5000 cells per well were treated using free uptake with modified oligonucleotides diluted to concentrations described in the tables below. After approximately 48 hours, Yap1 mRNA levels were measured as previously described using the Human Yap1 primer-probe set RTS4814. Yap1 mRNA levels were normalized to actin-beta content, as measured by primer probe set RTS5002. Results are presented in the tables below as percent control of the amount of Yap1 mRNA relative to untreated control cells (% UTC)."}, "CAL33 cells": {"tested_on": "CAL33 cells", "assay": "Cell proliferation assay in CAL33 cells, CellTiter-Glo (Example 36)", "details": "free uptake, approximately 144 hours", "method": "Modified oligonucleotides described in the studies above were tested at various doses in tongue squamous cell carcinoma line CAL33. A control oligonucleotide 792169, described herein above, was also tested.\n(§2) Cultured CAL33 cells at a density of 1000 cells/well were treated using free uptake with modified oligonucleotides diluted to concentrations described in the tables below. After approximately 144 hours, cell proliferation was measured using the luminescent cell viability CellTiter-Glo® 2.0 Assay (Promega). Results are presented in the tables below as percent control of the amount of luminescence in samples treated with modified oligonucleotides relative to untreated control cells (% UTC)."}, "Yap1 mRNA [2]": {"tested_on": "Yap1 mRNA", "assay": "Yap1 mRNA in CAL27 cells, RNA analysis (Example 37)", "details": "free uptake, approximately 48 hours", "method": "Modified oligonucleotides described in the studies above were tested at various doses in tongue squamous cell carcinoma line CAL27. A control oligonucleotide 792169, described herein above, was also tested.\nas §1, with “CAL27” for “NCI H292”"}, "SCC-15 cells": {"tested_on": "SCC-15 cells", "assay": "Cell proliferation assay in SCC-15 cells, CellTiter-Glo (Example 41)", "details": "free uptake, approximately 144 hours", "method": "Modified oligonucleotides described in the studies above were tested at various doses in tongue squamous cell carcinoma cell line SCC-15. A control oligonucleotide 792169, described herein above, was also tested.\nas §2, with “SCC-15” for “CAL33”"}, "Yap1 mRNA [3]": {"tested_on": "Yap1 mRNA", "assay": "Yap1 mRNA in SNU-899 cells, RNA analysis (Example 43)", "details": "free uptake, approximately 48 hours", "method": "Modified oligonucleotides described in the studies above were tested at various doses in laryngeal squamous cell carcinoma cell line SNU-899. A control oligonucleotide 792169, described herein above, was also tested.\nas §1, with “SNU-899” for “NCI H292”"}, "Yap1 mRNA [4]": {"tested_on": "Yap1 mRNA", "assay": "Yap1 mRNA in SNU-1076 cells, RNA analysis (Example 45)", "details": "free uptake, approximately 48 hours", "method": "(§3) Modified oligonucleotides described in the studies above were tested at various doses in upper aerodigestive tract/laryngeal squamous cell carcinoma line SNU-1076. A control oligonucleotide 792169, described herein above, was also tested.\nas §1, with “SNU-1076” for “NCI H292”"}, "SNU-1076 cells": {"tested_on": "SNU-1076 cells", "assay": "Cell proliferation assay in SNU-1076 cells, CellTiter-Glo (Example 45)", "details": "free uptake, approximately 144 hours", "method": "as §3\nas §2, with “SNU-1076” for “CAL33”"}},
  "note": "Strand notation (5' to 3'): a small letter for the sugar, then the base; units joined by * are phosphorothioate-linked, units joined directly phosphodiester-linked; [ ] holds rarer units or linkages, { } end groups; capitals alone tell only the bases. k = constrained ethyl (cEt); [5mC] = 5-methylcytosine; d = 2'-deoxy (DNA)",
  "data": [
    {"substance": "715487 (kA*kT*kT*dA*d[5mC]*dT*dT*d[5mC]*dA*dT*dA*dG*d[5mC]*kT*kT*kA) [compound 715487]", "values": [
      {"measurement": "human Yap1 mRNA expression", "setting": "Yap1 mRNA [1]; 0.04 μM", "result": 104, "unit": "% UTC"},
      {"measurement": "human Yap1 mRNA expression", "setting": "Yap1 mRNA [1]; 0.2 μM", "result": 83, "unit": "% UTC"},
      {"measurement": "human Yap1 mRNA expression", "setting": "Yap1 mRNA [1]; 1 μM", "result": 40, "unit": "% UTC"},
      {"measurement": "human Yap1 mRNA expression", "setting": "Yap1 mRNA [1]; 5 μM", "result": 12, "unit": "% UTC"},
      {"measurement": "Antiproliferative effect (cell proliferation, luminescence)", "setting": "CAL33 cells; 0.04 μM", "result": 89, "unit": "% UTC"},
      {"measurement": "Antiproliferative effect (cell proliferation, luminescence)", "setting": "CAL33 cells; 0.2 μM", "result": 79, "unit": "% UTC"},
      {"measurement": "Antiproliferative effect (cell proliferation, luminescence)", "setting": "CAL33 cells; 1 μM", "result": 61, "unit": "% UTC"},
      {"measurement": "Antiproliferative effect (cell proliferation, luminescence)", "setting": "CAL33 cells; 5 μM", "result": 37, "unit": "% UTC"},
      {"measurement": "human Yap1 mRNA expression", "setting": "Yap1 mRNA [2]; 0.08 μM", "result": 35, "unit": "% UTC"},
      {"measurement": "human Yap1 mRNA expression", "setting": "Yap1 mRNA [2]; 0.4 μM", "result": 23, "unit": "% UTC"},
      {"measurement": "human Yap1 mRNA expression", "setting": "Yap1 mRNA [2]; 2 μM", "result": 5, "unit": "% UTC"},
      {"measurement": "human Yap1 mRNA expression", "setting": "Yap1 mRNA [2]; 10 μM", "result": 3, "unit": "% UTC"},
      {"measurement": "Antiproliferative effect (cell proliferation, luminescence)", "setting": "SCC-15 cells; 0.04 μM", "result": 87, "unit": "% UTC"},
      {"measurement": "Antiproliferative effect (cell proliferation, luminescence)", "setting": "SCC-15 cells; 0.2 μM", "result": 66, "unit": "% UTC"},
      {"measurement": "Antiproliferative effect (cell proliferation, luminescence)", "setting": "SCC-15 cells; 1 μM", "result": 47, "unit": "% UTC"},
      {"measurement": "Antiproliferative effect (cell proliferation, luminescence)", "setting": "SCC-15 cells; 5 μM", "result": 28, "unit": "% UTC"},
      {"measurement": "human Yap1 mRNA expression", "setting": "Yap1 mRNA [3]; 0.04 μM", "result": 62, "unit": "% UTC"},
      {"measurement": "human Yap1 mRNA expression", "setting": "Yap1 mRNA [3]; 0.2 μM", "result": 26, "unit": "% UTC"},
      {"measurement": "human Yap1 mRNA expression", "setting": "Yap1 mRNA [3]; 1 μM", "result": 9, "unit": "% UTC"},
      {"measurement": "human Yap1 mRNA expression", "setting": "Yap1 mRNA [3]; 5 μM", "result": 4, "unit": "% UTC"},
      {"measurement": "human Yap1 mRNA expression", "setting": "Yap1 mRNA [4]; 0.04 μM", "result": 89, "unit": "% UTC"},
      {"measurement": "human Yap1 mRNA expression", "setting": "Yap1 mRNA [4]; 0.2 μM", "result": 67, "unit": "% UTC"},
      {"measurement": "human Yap1 mRNA expression", "setting": "Yap1 mRNA [4]; 1 μM", "result": 31, "unit": "% UTC"},
      {"measurement": "human Yap1 mRNA expression", "setting": "Yap1 mRNA [4]; 5 μM", "result": 11, "unit": "% UTC"},
      {"measurement": "Antiproliferative effect (cell proliferation, luminescence)", "setting": "SNU-1076 cells; 0.04 μM", "result": 91, "unit": "% UTC"},
      {"measurement": "Antiproliferative effect (cell proliferation, luminescence)", "setting": "SNU-1076 cells; 0.2 μM", "result": 90, "unit": "% UTC"},
      {"measurement": "Antiproliferative effect (cell proliferation, luminescence)", "setting": "SNU-1076 cells; 1 μM", "result": 86, "unit": "% UTC"},
      {"measurement": "Antiproliferative effect (cell proliferation, luminescence)", "setting": "SNU-1076 cells; 5 μM", "result": 79, "unit": "% UTC"}
    ]}
  ]
}
